Data as given in article PMC12751000, “Dual Agonist/Antagonist Modulation of α9-Containing Nicotinic Acetylcholine Receptors by 2‑Ammoniumethyl Ethers of Stilbenol and Stilbenol Analogues” (Journal of Medicinal Chemistry, 2025).
Entries after “also recorded” stand apart in the source; their conditions may differ. Read-outs that look alike come from different tables or passages of the source.

Tests used:
Type in all cases: cell-based
[1] = tested on: BzATP-induced release of IL-1β from human monocytic THP-1 cells; experiment: BzATP-induced IL-1β release by LPS-primed human monocytic THP-1 cells (ELISA); conditions: for Effect on the inhibitory effect of ACh on BzATP-induced IL-1β release: LPS 1 μg/mL 5 h, BzATP 100 μM 40 min; for Effect on BzATP-induced IL-1β release in the absence of ACh: LPS-primed THP-1
Method: THP-1 cells were primed with lipopolysaccharide (LPS; 1 μg/mL, 5 h) followed by stimulation with the P2X7 receptor agonist BzATP (2′/3′-O-(4-benzoylbenzoyl)-adenosine-5′-triphosphate, tri(triethylammonium) salt) for 40 min to induce IL-1β release, which was quantified by ELISA.
Experiments on human monocytic THP-1 cells (German Collection of Microorganisms and Cell Cultures, Braunschweig, Germany, Cat# ACC16) were performed as described before. […] The supernatants were collected and stored for later IL-1β measurements using the Human IL-1β/IL-1F2 DuoSet ELISA from R&D Systems (Minneapolis MN, USA, Cat# DY201). Cell viability was assessed by measuring lactate dehydrogenase (LDH) activity in the supernatants using the CytoTox 96 Non-Radioactive Cytotoxicity Assay (Promega, Madison WI, USA; Cat# G1780). LDH activities were expressed as a percentage of total LDH activity from lysed control cells. Data on the BzATP-induced IL-1β release and LDH activity were analyzed using SPSS (Version 29.0.2.0, IBM, Armonk, NY, United States) and visualized using Inkscape version 0.48.5 r10040 (Free and Open Source Software licensed under the GPL). The data were analyzed first by the Friedman test.

[2] = biological target: T1, hα9α10 nAChRs (Homo sapiens, UniProt Q9GZZ6+Q9UGM1); experiment: Two-electrode voltage clamp, inhibition of ACh-evoked currents at hα9α10 nAChRs expressed in Xenopus laevis oocytes; conditions: for IC50 / n H (Hill coefficient of inhibition): 6 μM ACh; for IC50: 5 min preincubation with compound, holding potential −80 mV
T1 construct: host or cells: Xenopus laevis oocytes, cRNA-injected (α9:α10 cRNA ratio 1:1)
T1 sequence (Q9UGM1 26-479 limits assumed): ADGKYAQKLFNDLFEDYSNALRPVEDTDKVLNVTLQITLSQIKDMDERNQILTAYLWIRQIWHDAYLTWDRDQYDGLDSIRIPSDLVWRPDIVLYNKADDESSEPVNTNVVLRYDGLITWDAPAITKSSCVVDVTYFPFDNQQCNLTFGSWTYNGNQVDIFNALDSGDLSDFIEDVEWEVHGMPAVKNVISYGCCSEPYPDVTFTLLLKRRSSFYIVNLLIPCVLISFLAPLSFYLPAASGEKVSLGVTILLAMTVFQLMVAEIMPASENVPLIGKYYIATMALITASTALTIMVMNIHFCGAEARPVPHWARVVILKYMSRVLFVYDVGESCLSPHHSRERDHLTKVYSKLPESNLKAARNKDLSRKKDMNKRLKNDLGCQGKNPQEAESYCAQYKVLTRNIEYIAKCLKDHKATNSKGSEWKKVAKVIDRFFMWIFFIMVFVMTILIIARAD
T1 sequence (Q9GZZ6 25-450): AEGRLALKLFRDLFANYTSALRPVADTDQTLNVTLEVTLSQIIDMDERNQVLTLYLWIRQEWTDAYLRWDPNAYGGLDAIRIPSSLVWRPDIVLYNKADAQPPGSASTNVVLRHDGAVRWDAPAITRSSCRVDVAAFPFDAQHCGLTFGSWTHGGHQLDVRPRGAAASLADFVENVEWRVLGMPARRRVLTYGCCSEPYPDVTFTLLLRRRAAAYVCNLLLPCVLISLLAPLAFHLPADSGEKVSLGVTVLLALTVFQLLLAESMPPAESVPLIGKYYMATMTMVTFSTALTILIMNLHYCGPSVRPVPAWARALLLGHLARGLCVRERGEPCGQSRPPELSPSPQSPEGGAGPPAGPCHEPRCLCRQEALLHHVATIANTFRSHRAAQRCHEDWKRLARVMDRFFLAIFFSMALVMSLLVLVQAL
From the text: (§1) The protocols were approved by the Animal Ethics Committees of the Victor Chang Cardiac Research Institute, Sydney, and the University of Wollongong (project number AE 20/17). Human α9 and α10 nAChR clones were obtained from OriGene (Rockville, MD, USA) and subcloned into the pT7TS vector. The human α7 nAChR clone, in the plasmid pMXT, was kindly provided by J. Lindstrom (University of Pennsylvania, USA). Constructs of human nAChR subunits were linearized and used for in vitro cRNA transcription with the SP6/T7 mMessage mMachine transcription kit (AMBION, Forster City, CA, USA).
(§2) The cRNA concentration was verified spectrophotometrically and by gel electrophoresis.
(§3) Electrophysiological recordings were conducted 2–5 days after cRNA injection using a HiClamp automated two-electrode voltage-clamp screening system (MultiChannel Systems GmbH, Reutlingen, Germany) with a holding potential of –80 mV. To prevent the activation of endogenous Ca^2+-activated chloride channels due to the Ca^2+ permeability of α9-containing nAChRs, oocytes were preincubated with 100 μM BAPTA-AM for approximately 3 h.
For concentration–response experiments assessing modulation of ACh-evoked responses, oocytes were initially superfused with ND96 or ND115 solution, depending on the receptor subtype. […] After ACh application, a 3 min washout was performed. Oocytes were then incubated with the test compound for 5 min, followed by coapplication of the compound and ACh in a continuously flowing bath solution. All compounds were prepared in ND96 or ND115 with 0.1% bovine serum albumin (BSA).

[3] = biological target: T1, hα9α10 nAChRs; experiment: Two-electrode voltage clamp, compound-evoked currents (compound applied alone) at hα9α10 nAChRs in Xenopus laevis oocytes
From the text: as §1, §2, §3
Concentration–response experiments assessing compound-evoked currents were performed by initially superfusing α9-containing nAChRs oocytes with ND115 solution. Test compounds were then applied at concentrations ranging from 300 pM to 30 μM, followed by a 3 min washout period.

[4] = biological target: T2, hα7 nAChRs (Homo sapiens, UniProt P36544); experiment: Two-electrode voltage clamp, inhibition of ACh-evoked currents at hα7 nAChRs in Xenopus laevis oocytes; conditions: for n H (Hill coefficient of inhibition) / IC50: 100 μM ACh; for IC50: 5 min preincubation
T2 construct: host or cells: Xenopus laevis oocytes, cRNA-injected (10 ng)
T2 sequence (P36544 23-502): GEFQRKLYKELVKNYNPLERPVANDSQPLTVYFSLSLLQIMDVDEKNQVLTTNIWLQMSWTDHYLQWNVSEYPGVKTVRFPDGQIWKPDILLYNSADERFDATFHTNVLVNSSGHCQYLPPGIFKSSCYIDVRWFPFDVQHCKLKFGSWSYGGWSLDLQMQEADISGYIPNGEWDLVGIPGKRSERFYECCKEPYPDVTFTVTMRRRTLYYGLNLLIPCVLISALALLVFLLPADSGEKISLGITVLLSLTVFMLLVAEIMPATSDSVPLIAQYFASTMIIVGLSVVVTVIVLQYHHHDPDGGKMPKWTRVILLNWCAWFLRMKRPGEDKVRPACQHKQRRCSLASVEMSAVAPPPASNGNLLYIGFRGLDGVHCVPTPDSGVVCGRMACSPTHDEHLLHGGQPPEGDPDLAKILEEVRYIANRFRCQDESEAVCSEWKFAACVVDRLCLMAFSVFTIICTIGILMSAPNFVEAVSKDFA

[5] = biological target: T3, hα9 nAChRs (Homo sapiens, UniProt Q9UGM1); experiment: Two-electrode voltage clamp, compound-evoked currents at hα9 nAChRs in Xenopus laevis oocytes; conditions: for n H (Hill coefficient of activation) / EC50: compound applied alone; for EC50: read-out: EC50
T3 construct: host or cells: Xenopus laevis oocytes, cRNA-injected
T3 sequence (Q9UGM1 26-479 limits assumed): as the sequence (Q9UGM1 26-479 limits assumed) above

[6] = biological target: T3, hα9 nAChRs; experiment: Two-electrode voltage clamp, inhibition of ACh-evoked currents at hα9 nAChRs in Xenopus laevis oocytes; conditions: for n H (Hill coefficient of inhibition) / IC50: 50 μM ACh; for IC50: 5 min preincubation
[7] = biological target: T2, hα7 nAChRs; experiment: Two-electrode voltage clamp, compound-evoked currents at hα7 nAChRs in Xenopus laevis oocytes; conditions: compound applied alone
Method: Additionally, five compounds of the series were tested on the homomeric hα7 and hα9 nAChRs.
as §1, §2, §3

[8] = compound applied alone (300 pM to 30 μM), normalized to response at highest concentration, read-out: EC50

| Structure (SMILES) | IC50 [2] [nM] | EC50 [3, 8] [nM] | IC50 ratio to Cpd 1 [2] | n H (Hill coefficient of inhibition) [2] | EC50 ratio to Cpd 1 [3] | n H (Hill coefficient of activation) ([3]; compound applied alone) | other results |
| --- | --- | --- | --- | --- | --- | --- | --- |
| CC(=O)OCC[N+](C)(C)C [ACh, acetylcholine] |  |  |  |  |  |  | Effect on BzATP-induced IL-1β release ([1]; ACh 10 μM applied shortly before BzATP): significantly reduced |
| CC[N+](CC)(CC)CCOc1ccc(CCc2ccccc2)cc1 [Compound 4] | 189 | 1140 |  |  |  |  |  |
| C[N+](C)(CCOc1ccc(/C=C/c2ccccc2)cc1)C1CCOCC1.[I-] [Compound 6, (E)-N,N-Dimethyl-N-(2-(4-styrylphenoxy)ethyl)tetrahydro-2H-pyran-4-aminium Iodide] | 55 | 185 | 0.9 | 2.1 | 0.5 | 2.4 |  |
| C[N+](C)(CCOc1ccc(/C=C/c2ccccc2)cc1)C1CCCC1.[I-] [Compound 7, (E)-N,N-Dimethyl-N-(2-(4-styrylphenoxy)ethyl)cyclopentanaminium Iodide] | 22.1 | 175 | 0.4 | 1.7 | 0.5 | 1.6 |  |
| C[N+](C)(CCOc1ccc(/C=C/c2ccccc2)cc1)C1CCCCCC1.[I-] [Compound 8, (E)-N,N-Dimethyl-N-(2-(4-styrylphenoxy)ethyl)cycloheptanaminium Iodide] | 124 | 300 | 2.1 | 2.6 | 0.8 | 1.6 |  |
| C[N+](C)(CCOc1ccc(/C=C/c2ccccc2)cc1)c1ccccc1.[I-] [Compound 9, (E)-N,N-Dimethyl-N-(2-(4-styrylphenoxy)ethyl)benzenaminium Iodide] | 95.1 | 474 | 1.6 | 2.1 | 1.2 | 3.3 |  |
| C[N+](C)(CCOc1ccc(/C=C/c2ccccc2)cc1)Cc1ccccc1.[Br-] [Compound 10, (E)-N-Benzyl-N,N-dimethyl-2-(4-styrylphenoxy)ethanaminium Bromide] | 124 | 448 | 2.1 | 2.1 | 1.2 | 2.4 |  |
| C[N+](CCOc1ccc(/C=C/c2ccccc2)cc1)(C1CCCC1)C1CCCC1.[I-] [Compound 12, (E)-N-Cyclopentyl-N-methyl-N-(2-(4-styrylphenoxy)ethyl)cyclopentanaminium Iodide] | 378 | 1710 | 6.3 | 3.0 | 4.4 | 1.2 |  |
| C[N+](CCOc1ccc(/C=C/c2ccccc2)cc1)(Cc1ccccc1)Cc1ccccc1 [Compound 13] | 1110 | 7040 |  |  |  |  | EC50 ([3]; compound applied alone, read-out: EC50): > 5000 nM |
| C[N+](C)(CCCOc1ccc(/C=C/c2ccccc2)cc1)C1CCCCC1.[I-] [Compound 14, (E)-N,N-Dimethyl-N-(3-(4-styrylphenoxy)propyl)cyclohexanaminium Iodide] | 98.9 | 511 | 1.6 | 2.1 | 1.3 | 3.0 |  |
| C[N+](C)(CCCCOc1ccc(/C=C/c2ccccc2)cc1)C1CCCCC1.[I-] [Compound 15, (E)-N,N-Dimethyl-N-(4-(4-styrylphenoxy)butyl)cyclohexanaminium Iodide] | 124 | 1470 | 2.1 | 2.0 | 3.8 | 1.4 |  |
| C[N+](C)(CCOc1ccc(CCc2ccccc2)cc1)C1CCCCC1.[I-] [Compound 16, N,N-Dimethyl-N-(2-(4-phenethylphenoxy)ethyl)cyclohexanaminium Iodide] | 168 | 482 | 2.8 | 3.8 | 1.3 | 3.2 | IC50 ratio to Cpd 1 [4]: 1.0; n H (Hill coefficient of inhibition) [4]: 1.8; IC50 [4]: 434 nM; Effect on the inhibitory effect of ACh on BzATP-induced IL-1β release ([1]; compound 100 pM + ACh 10 μM): efficiently antagonized the inhibitory effect of ACh; Effect on BzATP-induced IL-1β release in the absence of ACh ([1]; compound 100 pM): minor reduction; Effect on BzATP-induced IL-1β release in the absence of ACh ([1]; compound 100 nM): effectively and significantly inhibited; EC50 ratio to Cpd 1 [5]: 1.1; n H (Hill coefficient of activation) [5]: 2.4; EC50 [5]: 983 nM; IC50 ratio to Cpd 1 [6]: 0.7; n H (Hill coefficient of inhibition) [6]: 1.5; IC50 [6]: 133 nM; EC50 [7]: no agonist activity |
| CC[N+](CC)(CC)CCOc1ccc(-c2ccccc2)cc1 [Compound 17] | 117 | 479 | 1.9 | 1.4 | 1.2 | 3.3 |  |
| CC[N+](CC)(CC)CCOc1ccc(C#Cc2ccccc2)cc1 [Compound 18] | 89 | 550 | 1.5 | 1.8 | 1.4 | 2.2 |  |
| CC[N+](CC)(CC)CCOc1ccc(OCc2ccccc2)cc1 [Compound 19] | 207 | 1020 | 3.4 | 1.6 | 2.6 | 1.9 |  |
| CC[N+](CC)(CC)CCOc1ccc(COc2ccccc2)cc1 [Compound 20] | 139 |  | 2.3 | 1.7 (1.6–1.8) [8] |  |  | EC50 ([3]; compound applied alone (300 pM to 30 μM), normalized to response at highest concentration): failed to activate; also recorded: failed to evoke currents; also recorded: No activity |
| C[N+](C)(CCOc1ccc(OCc2ccccc2)cc1)C1CCCCC1.[I-] [Compound 21, N-(2-(4-(Benzyloxy)phenoxy)ethyl)-N,N-dimethylcyclohexanaminium Iodide] | 39.1 | 338 | 0.6 | 1.7 | 0.9 | 3.7 | IC50 ratio to Cpd 1 [4]: 1.0; n H (Hill coefficient of inhibition) [4]: 1.5; IC50 [4]: 419 nM; Effect on the inhibitory effect of ACh on BzATP-induced IL-1β release ([1]; compound 100 pM + ACh 10 μM): efficiently antagonized the inhibitory effect of ACh; Effect on BzATP-induced IL-1β release in the absence of ACh ([1]; compound 100 pM): minor reduction; Effect on the inhibitory effect of ACh on BzATP-induced IL-1β release ([1]; compound 100 nM + ACh 10 μM): mild antagonistic effects; Effect on BzATP-induced IL-1β release in the absence of ACh ([1]; compound 100 nM): effectively and significantly inhibited; EC50 ratio to Cpd 1 [5]: 1.0; n H (Hill coefficient of activation) [5]: 2.2; EC50 [5]: 905 nM; IC50 ratio to Cpd 1 [6]: 0.9; n H (Hill coefficient of inhibition) [6]: 1.6; IC50 [6]: 171 nM; EC50 [7]: No activity |
